Test results from ChEMBL document CHEMBL1152841, “Conformationally constrained analogues of N'-(4-tert-butylbenzyl)-N-(4-methylsulfonylaminobenzyl)thiourea as TRPV1 antagonists” (Eur J Med Chem, 2009).

Legend:
[1] = target: T1, Transient receptor potential cation channel subfamily V member 1 (Rattus norvegicus, UniProt O35433); experiment: Displacement of [3H]resiniferatoxin from rat TRPV1 expressed in CHO cells by scintillation counting; format: cell-based
[2] = target: T1, Transient receptor potential cation channel subfamily V member 1; experiment: Antagonist activity at rat TRPV1 expressed in CHO cells assessed as capsaicin-stimulated 45Ca2+ uptake; format: functional, cell-based
[3] = target: Transient receptor potential cation channel subfamily V member 1 (Rattus norvegicus) (UniProt O35433); experiment: Agonist activity at rat TRPV1 expressed in CHO cells by 45Ca2+ uptake assay relative to capsaicin; format: functional, cell-based
[4] = target: T1, Transient receptor potential cation channel subfamily V member 1; experiment: Agonist activity at rat TRPV1 expressed in CHO cells by 45Ca2+ uptake assay; format: functional, cell-based

T1 sequence (O35433 whole entry): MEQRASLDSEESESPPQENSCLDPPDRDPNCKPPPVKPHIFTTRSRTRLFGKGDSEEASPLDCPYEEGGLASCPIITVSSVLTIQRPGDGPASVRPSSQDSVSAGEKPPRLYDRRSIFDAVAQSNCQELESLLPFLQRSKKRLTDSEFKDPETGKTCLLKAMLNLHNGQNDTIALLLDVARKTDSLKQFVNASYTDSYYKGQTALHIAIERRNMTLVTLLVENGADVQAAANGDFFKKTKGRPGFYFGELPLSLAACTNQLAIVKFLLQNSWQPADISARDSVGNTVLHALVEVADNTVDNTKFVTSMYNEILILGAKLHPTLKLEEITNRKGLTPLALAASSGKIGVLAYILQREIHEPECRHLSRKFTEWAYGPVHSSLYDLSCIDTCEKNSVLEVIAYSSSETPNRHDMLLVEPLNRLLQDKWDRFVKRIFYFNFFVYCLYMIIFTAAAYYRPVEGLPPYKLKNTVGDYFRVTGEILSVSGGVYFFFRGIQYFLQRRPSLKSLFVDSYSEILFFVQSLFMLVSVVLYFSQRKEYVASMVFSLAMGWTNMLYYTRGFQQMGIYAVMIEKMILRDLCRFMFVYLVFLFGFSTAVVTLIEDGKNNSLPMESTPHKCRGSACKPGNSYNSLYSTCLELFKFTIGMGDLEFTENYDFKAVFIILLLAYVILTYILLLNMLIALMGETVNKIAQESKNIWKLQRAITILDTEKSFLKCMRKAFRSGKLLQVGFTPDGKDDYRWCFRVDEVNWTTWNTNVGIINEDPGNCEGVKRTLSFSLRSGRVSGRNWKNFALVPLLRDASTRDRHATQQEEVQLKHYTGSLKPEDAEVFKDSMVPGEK
Chain of Transient receptor potential cation channel subfamily V member 1 (Rattus norvegicus) (O35433 whole entry): as above

EC50 [4]	Structure (SMILES)	Ki [1]	Ki [2]	Activity [3]
–	CC(C)(C)c1ccc(CNC(=S)NC2CCc3cc(NS(C)(=O)=O)ccc32)cc1 (centres undefined)	660 nM	740 nM	–
–	COc1cc2c(cc1NS(C)(=O)=O)CCCC2NC(=S)NCc1ccc(C(C)(C)C)cc1 (centres undefined)	6900 nM	–	14%
–	COc1c(NS(C)(=O)=O)ccc2c1CCC2NC(=S)NCc1ccc(C(C)(C)C)cc1 (centres undefined)	1820 nM	1690 nM	–
–	CC(C)(C)c1ccc(CNC(=S)NC2CCCc3cc(NS(C)(=O)=O)ccc32)cc1 (centres undefined)	1590 nM	2640 nM	–
32.4 nM	COc1cc(CNC(=S)NCc2ccc(C(C)(C)C)cc2)ccc1NS(C)(=O)=O	–	–	17%
–	COc1cc2c(cc1NS(C)(=O)=O)CCC2NC(=S)NCc1ccc(C(C)(C)C)cc1 (centres undefined)	3370 nM	25000 nM	–
–	COc1c(NS(C)(=O)=O)ccc2c1CCCC2NC(=S)NCc1ccc(C(C)(C)C)cc1 (centres undefined)	1750 nM	4700 nM	–
